According to paper PMC12392461, “Beyond Estrogenicity: A Comparative Assessment of Bisphenol A and Its Alternatives in In Vitro Assays Questions Safety of Replacements” (Environmental Science & Technology, 2025):
Where two headings read alike, the source gives them in different places.

How the values were obtained:
[1] = system: Mitochondrial Membrane Potential; assay: cells; details: for EC10, linear / logEC10: MMP bioassay, dosing range all; for EC10, linear: linear model; for logEC10: log-logistic model; for Specificity ratio (SRbaseline) SRMMP: against baseline cytotoxicity; for Specificity ratio (SRcytotoxicity) SRMMP: human, 24 h; for Relative effect potency REPMMP: relative to BPA
Excerpt: All bioassay media components and the ERα-UAS-bla GripTite and PPARγ-UAS-bla cells were obtained from Thermo Fisher Scientific (Waltham, MA, USA). AREc32 reporter gene cells based on MCF7 were provided by C. Roland Wolf (Cancer Research UK); AhR CALUX cells (H4L7.5c2 derived from H4IIe) were provided by Michael Denison (UC Davis, USA); and SH-SY5Y cells were purchased from Sigma-Aldrich.
(§1) Cell culture conditions and bioassay protocols including response detection are provided in Text S2.1–2.4 and Table S3. − Cell viability was determined from cell confluency using an IncuCyte S3 Live-Cell Analysis System (Sartorius AG, Essen, Germany) before and after exposure, except for SH-SY5Y cells (live–dead staining with Nuclear Green LcS1 and propidium iodide, Abcam, UK). For metabolic activation experiments, cell viability was assessed using the ToxBLAzer DualScreen Kit (Thermo Fisher Scientific) to capture the remaining toxicity in ERα-UAS-bla GripTite after treatment with the aCYP catalyst (details in Text S2.4).
For ARE, the concentration that triggered an induction ratio of 1.5 (ECIR1.5) was used as the benchmark value, as detailed in Text S2.5. IC10 values also served as a threshold for data analysis in all assays; only concentrations below IC10 were considered when deriving EC10 or ECIR1.5. […]
S2: Cell culture and bioassays
S2.1: Cell Culturing Conditions
All suppliers and sources are given in detail in SI-Excel S3. The bioassay media for the different assays were prepared as follows: Assay medium for ER alpha-UAS-bla GripTite (ERα) and […]
2% charcoal-stripped FBS, and 100 U/mL penicillin-streptomycin. MitoOxTox and AhR assay medium was comprised of 90% DMEM with GlutaMAX, supplemented with 10% FBS, and 100 U/mL penicillin-streptomycin. […]
S2.2: Cell Seeding and Incubation. For all bioassays, cell suspensions in the respective assay medium were dispensed into each well of 384-well plates using a MultiFlo Dispenser (Biotek, (now Agilent), Winooski, VT, U.S.). After seeding, the plates were incubated at 37° C and 5% CO₂ for […]. The final cell densities and plate types were as follows: Black poly-D-lysine […]
6500 cells/well, ERα: 5000 cells/well. White 384-well plates with a clear bottom (Product No.
(§2) NYC, U.S.) for AhR: 3250 cells/well. Black Collagen I coated plates were used (Product No.
(§3) S2.3: Chemical Dosing and Assay Analysis Procedures. The dosing procedure and high-throughput assay workflow have been described in detail before. 9 The dosing concentrations […]
Stock solutions were then either

[2] = system: SH-SY5Y cells; details: for IC10, SH-S5Y5, NOI: cytotoxicity, NOI assay cells
Experimental: as §1, with “S2.4). […]” for “S2.4).”
We measured the cytotoxicity of BPA and its alternatives in HEK293H (PPARγ), HEK293T (ERα), H4IIe (AhR CALUX), MCF7 (ARE/MMP), and differentiated SH-SY5Y cells (Table S6). […]
medium, supplemented with 2% B-27 Supplement and 2 mM GlutaMAX Supplement. SH - SY5Y cells were differentiated with 10 µM all-trans retinoic acid prior to the assay.
S2.2: Cell Seeding and Incubation. For all bioassays, cell suspensions in the respective assay medium were dispensed into each well of 384-well plates using a MultiFlo Dispenser (Biotek, (now Agilent), Winooski, VT, U.S.). After seeding, the plates were incubated at 37° C and 5% […]
as §2, §3
Stock solutions were then either added directly to the respective cell culture medium or evaporated under nitrogen, followed by replenishment with fresh medium. The final solvent content in each well was kept below 1% for methanol, 0% for acetonitrile.
Dosing plates were prepared as 11 -step serial dilutions using a Hamilton Microlab Star robotic system (Hamilton, Bonaduz, Switzerland), and chemicals were dosed in duplicates by transferring 10 μL twice from the dosing plates to the cell plates . After quantifying cell confluency as described in S2. 4., the exposed cells were incubated at 37° C and 5% CO₂ for an additional 24 h. All chemicals were tested in all assays with at least three independent […]
S2.4: Cell Viability Measurement s and bioanalytical protocols . The confluency as a measure of cell viability was determined with an IncuCyte S3 Live -Cell Analysis System (Sartorius AG, Essen, Germany). With this method the confluency of cells in a microscopy image are normalized to control wells without cells and compared before and after 24 hours of exposure.
This method has been described previously 13. Cell viability of SH-SY5Y cells was measured […]
propidium iodide (PI, Abcam, Cambridge, U.K.).14 Nuclear Green LCS1 is a membrane-permeable dye that stains the nuclei of all cells, whereas PI only enters cells with compromised membrane integrity (non-viable cells). After staining, live cells show green nuclei without red fluorescence, while dead cells display both green and red nuclear fluorescence due to PI […]
intercalation. […]

[3] = Acidity constant (pKa) measurement, Sirius T3 UV-metric, and speciation at pH 7.4; details: for Double negative form (pH = 7.40) / Negative form (pH = 7.40) / Neutral form (pH = 7.40) / αneutral % (fraction of neutral species): from experimental pKa; for αneutral % (fraction of neutral species): pH 7.4; for pKa: pKa (Acid)
Experimental: Physicochemical properties provide input parameters for the baseline toxicity model. Acidity constants (pK a) and octanol–water partition constants of the neutral species (K ow) were measured with a Sirius T instrument from Pion Inc. (Sussex, UK) (Text S1.2 and Table S1). A detailed description of the pK a and K ow measurements can be found in literature. , […]
S1.2: pKa and log Kow measurements […]
titrator (Pion Inc., Sussex, U.K.). A detailed description of the experimental procedure is available in the literature.1 In brief, each sample was prepared by mixing 5 µL of a 10 mM dimethyl sulfoxide (DMSO) stock solution with 25 µL of a phosphate buffer solution (14.4 mM […]
A reference vial containing 5 µL of DMSO
(Roth, A994-100 ML) and 25 µL of phosphate buffer was analyzed alongside each sample.
The pKa values were determined using the automated UV-metric pKa protocol within the Sirius T3 Control software (version 2.0.0.0.). Each sample was subjected to three consecutive […]
from 2 to 12 by stepwise addition of 0.5 M HCl or 0.5 M potassium hydroxide while recording […]
UV absorbance. […]
To ensure reproducibility, measurements were conducted on at least two

[4] = NOI bioassay cytotoxicity, dosing range all, linear model
[5] = NOI bioassay cytotoxicity, dosing range all, log-logistic model
[6] = Arec32, read-out: EC10, MMP (M)
[7] = Arec32, read-out: EC10, linear transformed
[8] = NOI bioassay cytotoxicity, dosing range all

| SMILES | EC10, linear [1] | logEC10 [1] | IC10, linear [2, 4] | logIC10 [2, 5] | Double negative form (pH = 7.40) [3] [%] | Negative form (pH = 7.40) [3] [%] | Neutral form (pH = 7.40) [3] [%] | αneutral % (fraction of neutral species) [3] [%] | EC10 ([1]; Arec32, read-out: EC10, MMP) [M] | EC10 [1, 6] [M] | EC10 ([1]; Arec32, read-out: EC10, linear) [M] | EC10 [1, 7] [M] | EC10 ([1]; Arec32, read-out: logEC10) [M] | Specificity ratio (SRbaseline) SRMMP [1] | Relative effect potency REPMMP [1] | IC10, linear transformed [2, 8] | Toxic ratio (TR) TRNOI ([2]; against baseline cytotoxicity) | IC10, SH-S5Y5, NOI [2] [µM] | other results |
| --- | --- | --- | --- | --- | --- | --- | --- | --- | --- | --- | --- | --- | --- | --- | --- | --- | --- | --- | --- |
| CC1(C)C(O)C(C)(C)C1O (racemic) [r-TMCD, 2,2,4,4-Tetramethyl-1,3-cyclobutanediol (racemate)] | no effect | no effect | no cytotoxicity | no cytotoxicity | 0 | 0 | 100 | 100 |  |  |  |  |  |  |  |  |  |  |  |
| O=S(=O)(c1ccc(O)cc1)c1ccccc1O [2,4-BPS, 2,4'-Dihydroxydiphenyl sulfone] |  |  |  |  | 5 | 52 | 43 | 43 | 5.9e-05 | 5.9e-05 | 4.26e-05 | 5.93e-05 | 5.89e-05 | 11.47 | 0.47 |  |  |  | Specificity ratio (SRcytotoxicity) SRMMP [1]: 14.98; Toxic ratio (TR) TRNOI ([2]; human, 24 h): 1.29; logIC10 ([2]; human, 24 h): -3.31; pKa (Acid) [3]: 8.43; pKa [3]: 7.31 |
| CC(C)(c1ccc(OCC2CO2)cc1)c1ccc(OCC2CO2)cc1 (stereo not shown) [BADGE, Bisphenol A diglycidyl ether] | no effect | no effect | 5.39E-05 | -4.24 | 0 | 0 | 100 | 100 |  |  |  | 9.1e-05 |  |  |  | 5.73E-05 | 0.32 | 57.3 |  |
| CC(C)CC(C)(c1ccc(O)cc1)c1ccc(O)cc1 [BP-MIBK, 4,4'-(1,3-Dimethylbutylidene)diphenol] |  |  |  |  |  |  |  |  | 1.14e-05 | 1.14e-05 | 7.7e-06 | 1.12e-05 | 1.15e-05 |  |  |  |  |  | IC10, linear [2]: no cytotoxicity; logIC10 ([2]; human, 24 h): -4.10 |
| CC(C)(c1ccc(O)cc1)c1ccc(O)cc1 [BPA, 4,4'-(Propane-2,2-diyl)diphenol, reference compound] |  |  | no cytotoxicity | -3.62 | 9.99e-6 |  | 100 | 100 | 2.8e-05 | 2.8e-05 | 2.1e-05 | 2.79e-05 | 2.82e-05 | 0.92 | 1.00 | 2.37E-04 | 0.0846 | 237 | EC10 (MMP inhibition) [1]: 28 µM; Specificity ratio (SRcytotoxicity) SRMMP [1]: 2.92; log(1/EC10) MMP ([1]; input of the ToxPi score, values up to 1.00): 0.71; SR (MMP inhibition) ([1]; specificity ratio): 3; pKa (Acid) [3]: 9.85; pKa [3]: 8.78 |
| C=CCOc1ccc(S(=O)(=O)c2ccc(O)cc2)cc1 [BPS-MAE, 4-[[4-(Allyloxy)phenyl]sulfonyl]phenol] |  |  | no cytotoxicity | -3.87 |  |  |  |  | 7.85e-05 | 7.85e-05 | 5.59e-05 | 8.31e-05 | 7.76e-05 |  |  | 1.36E-04 |  | 136 |  |
| Cc1cc(Cc2cc(C)c(O)c(C)c2)cc(C)c1O [TMBPF, Bis(3,5-dimethyl-4-hydroxyphenyl)methane] | no effect | no effect | 1.62E-05 | -4.90 |  |  |  |  |  |  |  | 6.68e-05 |  |  |  | 1.27E-05 | 0.73 | 12.7 |  |
| CC1(C)[C@H](O)C(C)(C)[C@H]1O [Trans TMCD] |  |  | no cytotoxicity | no cytotoxicity |  |  |  |  |  |  | 0.0141 | 0.0185 | 0.0186 |  |  |  |  |  |  |
| CC1(C)[C@H](O)C(C)(C)[C@H]1O [t-TMCD, trans-2,2,4,4-Tetramethyl-1,3-cyclobutanediol] |  |  |  |  |  | 1e-6 | 100 | 100 | 0.0185 | 0.0185 |  |  |  | 0.0554 | 0.00152 |  |  |  | pKa ([3]; phosphate buffer with […] KCl, Sirius T3 titrator, experimental, this study): 15.4 |
